Measurements published in paper PMC8713167, “New Insights into the Structure–Activity Relationship and Neuroprotective Profile of Benzodiazepinone Derivatives of Neurounina-1 as Modulators of the Na^+/Ca^2+ Exchanger Isoforms” (Journal of Medicinal Chemistry, 2021).

Columns and labels:
[1] = biological target: T1, NCX1 (Canis lupus familiaris, UniProt P23685); test: High-throughput screening of NCX1 reverse mode, Fluo-4-loaded BHK-NCX1 cells, Na+-free pulse; assay type: cell-based, dog; conditions: for Effect on NCX1 activity in the reverse mode (screening, in words): BHK-NCX1, 10 nM and 10 μM; for Fluo-experiments on BHK-NCX1: NCX1 reverse mode, Na+-free, CTL (100), concentration not given (10 nM and 10 μM screened)
T1 construct: expressed in transfected cells; host or cells: BHK (baby hamster kidney) cells, stably transfected

[2] = test system: primary cortical neurons; test: Cell viability (MTT) of primary cortical neurons exposed to chemical hypoxia followed by RX; assay type: cell-based, rat
Experimental: Considering that this represents a more demanding experimental paradigm, compound 1 may be considered an interesting tool with a neuroprotective profile. In fact, its neuroprotective effect in cortical neurons exposed to hypoxic conditions was similar to that produced by ischemic PC,[30],[31] a short stimulus inducing ischemic tolerance in neurons (Figure 6B). Furthermore, to better investigate the neuroprotective profile of compound 1, it was tested in primary cortical neurons exposed to chemical hypoxia, followed by RX, a detrimental condition undermining the mitochondrial function. […] However, the specific role of each mode of operation in the neuroprotective effect remains obscure and very difficult to define in this experimental paradigm. […] Therefore, the excessive activation of the NCX3 forward mode determining Ca^2+ extrusion may negatively counterbalance the activation of its reverse mode, favoring Ca^2+ entrance.
Rat cortical neurons were prepared and grown as previously reported.[22],[23] […]
Chemical hypoxia was reproduced by exposing primary cortical neurons for 45 min to a glucose-free medium containing oligomycin (5 μg/mL) plus 2-DG (2 mM), followed by RX (3 h). […] Cell injury was assessed by MTT analysis at the end of each experiment.

[3] = biological target: T1, NCX1; test: Whole-cell patch-clamp electrophysiology of INCX in BHK-NCX1 cells; assay type: cell-based, dog; conditions: CTL100; for Patch-clamp-experiments on BHK-NCX1, forward mode: forward mode (−120 mV); for Patch-clamp-experiments on BHK-NCX1, reverse mode: reverse mode (+60 mV)
[4] = biological target: T2, NCX3 (Rattus norvegicus, UniProt P70549); test: High-throughput screening of NCX3 reverse mode, Fluo-4-loaded BHK-NCX3 cells, Na+-free pulse; assay type: cell-based; conditions: CTL (100), concentration not given (10 nM and 10 μM screened)
T2 construct: expressed in transfected cells; host or cells: BHK (baby hamster kidney) cells, stably transfected
T2 sequence (P70549 31-927): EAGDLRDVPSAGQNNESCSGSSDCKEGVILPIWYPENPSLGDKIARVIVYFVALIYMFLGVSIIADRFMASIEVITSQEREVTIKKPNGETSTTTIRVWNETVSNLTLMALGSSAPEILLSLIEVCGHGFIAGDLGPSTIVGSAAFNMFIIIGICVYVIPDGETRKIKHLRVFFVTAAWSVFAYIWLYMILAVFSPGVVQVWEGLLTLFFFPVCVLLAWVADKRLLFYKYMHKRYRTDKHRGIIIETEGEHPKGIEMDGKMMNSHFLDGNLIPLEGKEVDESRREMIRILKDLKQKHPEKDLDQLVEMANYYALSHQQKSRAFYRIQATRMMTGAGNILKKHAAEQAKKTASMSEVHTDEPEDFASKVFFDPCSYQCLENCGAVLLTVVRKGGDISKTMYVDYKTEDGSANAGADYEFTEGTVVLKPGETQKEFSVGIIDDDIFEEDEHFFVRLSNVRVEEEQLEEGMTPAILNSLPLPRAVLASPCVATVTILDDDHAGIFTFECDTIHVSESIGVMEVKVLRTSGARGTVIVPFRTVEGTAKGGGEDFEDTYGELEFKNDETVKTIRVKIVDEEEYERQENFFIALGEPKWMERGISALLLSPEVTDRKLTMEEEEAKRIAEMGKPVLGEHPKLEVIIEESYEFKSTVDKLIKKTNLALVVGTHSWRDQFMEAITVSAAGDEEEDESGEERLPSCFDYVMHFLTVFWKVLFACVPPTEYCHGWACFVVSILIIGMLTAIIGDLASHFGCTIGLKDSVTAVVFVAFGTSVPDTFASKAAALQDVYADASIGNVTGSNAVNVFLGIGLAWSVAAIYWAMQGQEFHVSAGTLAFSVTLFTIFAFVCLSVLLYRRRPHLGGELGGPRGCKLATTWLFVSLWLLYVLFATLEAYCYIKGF

[5] = test system: rat primary cortical neurons; test: Cell viability (MTT) of primary cortical neurons exposed to OGD followed by RX; assay type: cell-based; conditions: for Neuroprotection in cortical neurons exposed to OGD + RX (in words): added during OGD and RX, 1 at 10 nM, 14 at 10 μM
Experimental: Once identified as NCX activity modulators, compounds 1, 4, and 14 were tested on cell viability of primary rat cortical neurons exposed to OGD followed by RX, an experimental condition mimicking hypoxic conditions occurring during stroke. These compounds were added during either OGD or RX phases at the corresponding median effective concentration for their NCX stimulating or inhibiting activity.
Rat cortical neurons were prepared and grown as previously reported.[22],[23] During the exposure to hypoxic conditions, primary cortical neurons at 7/10 DIV were incubated with different concentrations of each previously identified compound. Italian Ministry of Health and the local Animal Care Committee of “Federico II” University of Naples (Italy) approved all animal procedures adopted (D. Lgs. March 4th, 2014 from Italian Ministry of Health; DIR 210/63 UE; 12/2018-UT7).
Hypoxic conditions were induced by exposing rat primary cortical neurons to a oxygen- and glucose-free medium in a humidified atmosphere containing 95% nitrogen and 5% CO2, as previously reported.[22],[23] Cell injury was assessed by MTT analysis. Briefly, neurons were incubated with 1 mL of MTT solution (0.5 mg/mL in PBS). After 1 h of incubation at 37 °C, neurons were dissolved in dimethyl sulfoxide and the rate of MTT variation was measured spectrophotometrically at the wavelength of 540 nm.[22],[57]

[6] = biological target: T1, NCX1; test: Single-cell Fura-2AM video-imaging, Na+-free-induced [Ca2+]i increase in BHK-NCX1 cells; assay type: cell-based, dog; conditions: for Fura2-experiments on BHK-NCX1 (dose/effect) / Fura2-experiments on BHK-NCX1 (dose/effect), inhibition: Na+-free-induced [Ca2+]i increase, reverse mode
Experimental: Furthermore, NCX activity in the reverse mode of operation was also studied on single cell by Fura-2AM video-imaging in BHK-NCX1 and BHK-NCX3 cells (Figures 3 and 4). […] Furthermore, patch-clamp electrophysiology in the whole-cell configuration was used to measure NCX activity both in the forward and reverse mode of operation.
[Ca^2+]i was measured by single-cell computer-assisted video-imaging using Fura-2 acetoxymethyl ester (Fura-2AM). Neurons were loaded with Fura 2AM (10 μM for 30′ at 37 °C). Experiments were carried out with a MicroMax 512BFT cooled CCD camera (Princeton Instruments, Trenton, NJ, USA), LAMBDA 10-2 filter wheeler (Sutter Instruments, Novato, CA), and Meta-Morph/MetaFluor Imaging System software (Universal Imaging, West Chester, PA). Fura-2 fluorescence intensity was measured every 3 s. From each coverslip, 40–60 individual cells were selected and monitored simultaneously. Assuming that the KD for FURA-2 was 224 nM, the equation of Grynkiewicz was used to for calibration.[58]
The NCX reverse mode was determined by switching the normal Krebs medium to Na^+-deficient NMDG+ medium (Na^+-free), as previously reported.[57]
Compounds were solubilized in dimethyl sulfoxide at concentrations of 1 mM, and stock solutions were kept at −20 °C. Appropriate drug dilutions were prepared daily. Statistical analysis was performed with two-way ANOVA, followed by the Newman–Keuls test. Statistical significance was accepted at the 95% confidence level (p < 0.05). Values are expressed as means ± SEM. To obtain EC50’s of newly synthesized compounds and IC50 of compound 4, all data were fitted to the following binding isotherm: […], where X is the drug concentration and n is the Hill coefficient.

[7] = biological target: T2, NCX3; test: Single-cell Fura-2AM video-imaging, Na+-free-induced [Ca2+]i increase in BHK-NCX3 cells; assay type: cell-based
[8] = biological target: T2, NCX3; test: Whole-cell patch-clamp electrophysiology of INCX in BHK-NCX3 cells; assay type: cell-based; conditions: compound 4 at 10 μM (Figures 5B and S1)

## O=C1CN=C(c2ccccc2Cl)c2cc([N+](=O)[O-])ccc2N1CN1CCCC1 [Compound 1, 5-(2-Chlorophenyl)-7-nitro-1-(pyrrolidin-1-ylmethyl)-1H-benzo[e][1,4]diazepin-2(3H)-one]
[1]
  Effect on NCX1 activity in the reverse mode (screening, in words): selective NCX1 activator
  Fluo-experiments on BHK-NCX1: 128±1.3
[2]; compound 10 nM during chemical hypoxia (45 min) and RX (3 h), chemical Hyp alone 34, control 100
  Neuroprotection: cell viability after chemical hypoxia + RX: 46±1.5 % of control
[2]; compound 1 at 10 nM
  Neuroprotection in cortical neurons exposed to chemical hypoxia + RX (in words): significantly reduced cell suffering
[3]
  Patch-clamp-experiments on BHK-NCX1, forward mode: 206±2%
  Patch-clamp-experiments on BHK-NCX1, reverse mode: 305±3%
[4]
  Fluo-experiments on BHK-NCX3: 100
[5]
  Neuroprotection in cortical neurons exposed to OGD + RX (in words): showed a neuroprotective profile
[5]; compound 10 nM added during OGD and RX, OGDrx alone 57, normoxic control 100
  Neuroprotection: cell viability after OGD + RX: 71±0.8 % of control
[5]; preincubated, then removed during OGD + RX
  Neuroprotection when preincubated and removed during OGD and RX (in words): continued to protect neurons from hypoxic conditions
[6]; 1nM
  Fura2-experiments on BHK-NCX1 (dose/effect): 120±1.3 % of controls
[6]; 10nM
  Fura2-experiments on BHK-NCX1 (dose/effect): 178±2.3 % of controls
[6]; 10µM
  Fura2-experiments on BHK-NCX1 (dose/effect): 190±2.1 % of controls

## CC1CCCCN1C(=O)CN1C(=O)CN=C(c2ccccc2)c2cc([N+](=O)[O-])ccc21 (stereo not shown) [Compound 14, 1-[2-(2-Methylpiperidin-1-yl)-2-oxoethyl]-7-nitro-5-phenyl-1H-benzo[e][1,4]-diazepin-2(3H)-one]
[7]
  EC50: 2 µM
[5]
  Neuroprotection in cortical neurons exposed to OGD + RX (in words): lack of neuroprotection
[6]
  EC50: 0.0035 µM

## O=C1CN=C(c2ccccc2)c2cc([N+](=O)[O-])ccc2N1CCN1CCCC1 [Compound 4, 7-Nitro-5-phenyl-1-[2-(pyrrolidin-1-yl)ethyl]-1H-benzo[e][1,4]diazepin-2(3H)-one]
other
  melting point: 70 to 71 °C
[1]
  Effect on NCX1 activity in the reverse mode (screening, in words): selective NCX1 inhibitor
  Fluo-experiments on BHK-NCX1: 80±2
[3]; compound 4 at 10 μM (Figure 5)
  Patch-clamp-experiments on BHK-NCX1, forward mode: 85±2.1
  Patch-clamp-experiments on BHK-NCX1, reverse mode: 58±1.1
[8]
  Effect on NCX activity in BHK-NCX3 cells (in words): failed to modulate
[4]
  Fluo-experiments on BHK-NCX3: 100
[6]
  IC50: 10 µM
[6]; 1nM
  Fura2-experiments on BHK-NCX1 (dose/effect), inhibition: 98±1.3 % of controls
[6]; 10nM
  Fura2-experiments on BHK-NCX1 (dose/effect), inhibition: 97±0.3 % of controls
[6]; 10µM
  Fura2-experiments on BHK-NCX1 (dose/effect), inhibition: 41±2.1 % of controls
[6]; 30µM
  Fura2-experiments on BHK-NCX1 (dose/effect), inhibition: 9±0.5 % of controls
